# Measured values: US11351142B2, “Composition and method for treating neuronal ceroid lipofuscinosis” (Rush University Medical Center, priority 2012, dated 2022)
# Assays:
# [1] = test system: TPP1; assay: Western blot and densitometric analysis of TPP1 in mouse primary astrocytes; type: cell-based
# Method: Astroglia were isolated from mixed glial cultures as described (17,18) according to the procedure of Giulian and Baker (19). Briefly, on day 9, the mixed glial cultures were washed three times with Dulbecco's modified Eagle's medium/F-12 and subjected to shaking at 240 rpm for 2 h at 37° C. on a rotary shaker to remove microglia. After 2 days, the shaking was repeated for 24 h for the removal of oligodendroglia and to ensure the complete removal of all nonastroglial cells. The attached cells were seeded onto new plates for further studies.
# Western blotting was conducted as described earlier (27,28) with modifications. Briefly, cells were scraped in double-distilled H20 and sodium dodecyl sulfate (SDS), electrophoresed on NuPAGE® Novex® 4-12% Bis-Tris gels (Invitrogen) and proteins transferred onto a nitrocellulose membrane (Bio-Rad) using the Thermo-Pierce Fast Semi-Dry Blotter. The membrane was then washed for 15 min in TBS plus Tween 20 (TBST) and blocked for 1 hr in TBST containing BSA. Next, membranes were incubated overnight at 4° C. under shaking conditions with the following 1° antibodies; TPP1 (1:250, Santa Cruz), β-actin (1:800; Abcam, Cambridge, Mass. The next day, membranes were washed in TBST for 1 hr, incubated in 2° antibodies against 1° antibody hosts (all 1:10,000; Jackson ImmunoResearch) for 1 hr at room temperature, washed for one more hour and visualized under the Odyssey® Infrared Imaging System (Li-COR, Lincoln, Nebr.).
# Protein blots were analyzed using ImageJ (NIH, Bethesda, Md.) and bands were normalized to their respective β-actin loading controls. Data are representative of the average fold change with respect to control for three independent experiments.
# [2] = test system: Cln2 mRNA; assay: Cln2 mRNA expression by semi-quantitative RT-PCR and real-time PCR in mouse primary astrocytes; type: cell-based
# Method: Astroglia were isolated from mixed glial cultures as described (17,18) according to the procedure of Giulian and Baker (19). Briefly, on day 9, the mixed glial cultures were washed three times with Dulbecco's modified Eagle's medium/F-12 and subjected to shaking at 240 rpm for 2 h at 37° C. on a rotary shaker to remove microglia. After 2 days, the shaking was repeated for 24 h for the removal of oligodendroglia and to ensure the complete removal of all nonastroglial cells. The attached cells were seeded onto new plates for further studies. Total RNA was isolated from mouse primary astrocytes and human primary astrocytes using RNA-Easy Qiagen (Valencia, Calif.) kit following manufactures protocol. Semi-quantitative RT-PCR was carried out as described earlier (24) using oligo (dT) 12-18 as primer and moloney murine leukemia virus reverse transcriptase (MMLV-RT, Invitrogen) in a 20 μl reaction mixture. The resulting cDNA was appropriately amplified using Promega Master Mix (Madison, Wis.) and the following primers (Invitrogen) for murine genes: The mRNA quantification was performed using the ABI-Prism7700 sequence detection system (Applied Biosystems, Foster City, Calif.) using iTaq™ Fast Supermix With ROX (Bio-Rad, Hercules, Calif.) and the following 6-FAM/ZEN/IBFQ-labeled primers for murine genes: Cln2 and Gapdh (Integrated DNA Technologies Coralville, Iowa). The mRNA expression of the targeted genes was normalized to the level of Gapdh mRNA and data was processed by the ABI Sequence Detection System 1.6 software.
smiles,measurement,setting,value
"CC1=C(/C=C/C(C)=C/C=C/C(C)=C/C(=O)O)C(C)(C)CCC1 [RA, all-trans retinoic acid]",induction of TPP1 (immunoblot),"[1]; PPARα−/− astrocytes, RA (0.5 μM) and combination of gemfibrozil (10 μM) and RA (0.5 μM)",neither RA alone nor the combination could induce TPP1
same,"TPP1 levels (Western blot, densitometric analysis)","[1]; RXRα siRNA transfected astrocytes, gemfibrozil (10 μM), RA (0.5 μM) alone and in combination",almost no enhancement
same,Cln2 level (quantitative real time PCR),"[2]; astrocytes with RXRα knockdown (RXRα siRNA), gemfibrozil (10 μM), RA (0.5 μM) alone and in combination",almost unresponsive
same,increase in Cln2 mRNA levels (quantitative real time PCR),"[2]; mouse primary astrocytes, 24 hrs, RA 0.5 μM, gemfibrozil 10 μM, combination 10 μM gemfibrozil and 0.5 μM RA",about 3.5 fold
